# Test results from ChEMBL document CHEMBL5370690, “Atypical N-Alkyl to N-Noralkoxy Switch in a Dual cSRC/BCR-ABL1 Kinase Inhibitor Improves Drug Efflux and hERG Affinity” (ACS Med Chem Lett, 2023).
# pIC50: −log10 of the molar value.
# Tests used:
# [1] = Mutagenicity in Salmonella typhimurium TA100 incubated for 96 hrs by Ames test; type: toxicity; settings: salmonella enterica subsp. enterica serovar typhimurium
# [2] = Mutagenicity in Salmonella typhimurium TA98 incubated for 96 hrs by Ames test; type: toxicity; settings: salmonella enterica subsp. enterica serovar typhimurium
# [3] = Mutagenicity in Salmonella typhimurium TA1535 incubated for 96 hrs by Ames test; type: toxicity; settings: salmonella enterica subsp. enterica serovar typhimurium
# [4] = Mutagenicity in Salmonella typhimurium TA1537 incubated for 96 hrs by Ames test; type: toxicity; settings: salmonella enterica subsp. enterica serovar typhimurium
# [5] = system: MEG-01; assay: Antiproliferative activity against human MEG-01 cells assessed as cell growth inhibition incubated for 72 hrs by Cell Titer-Glo Luminescent assay; type: functional, cell-based; settings: MEG-01, 72 h
# [6] = system: SUP-B15; assay: Antiproliferative activity against human SUP-B15 cells assessed as cell growth inhibition incubated for 72 hrs by Cell Titer-Glo Luminescent assay; type: functional, cell-based; settings: SUP-B15, 72 h
# [7] = system: KU812 cell line; assay: Antiproliferative activity against human KU812 cell line assessed as cell growth inhibition incubated for 72 hrs by Cell Titer-Glo Luminescent assay; type: functional, cell-based; settings: KU812, 72 h
structure (smiles),measurement,setting,value
COc1cc(Nc2c(C#N)cnc3cc(OCCON4CCN(C)CC4)c(OC)cc23)c(Cl)cc1Cl,Activity,[1],Non-Toxic
same,Activity,[2],Non-Toxic
same,Activity,[3],Non-Toxic
same,Activity,[4],Non-Toxic
COc1cc(Nc2c(C#N)cnc3cc(OCCCN4CCN(C)CC4)c(OC)cc23)c(Cl)cc1Cl [BOSUTINIB],pIC50,[5],7.89
same,pIC50,[6],6.68
same,pIC50,[7],8.44
